# In patent US4287035A, “Method for producing rapid pH changes” (priority 1979, dated 1981):
# Entries after “also recorded” stand apart in the source; their conditions may differ. Read-outs that look alike come from different tables or passages of the source.
# What was measured:
# [1] = pK values of representative molecules in ground state (S0) and first excited singlet state (S1), Table I; type: physicochemical; settings: S0 to S1
# Text: As shown by the data of the tables set forth in Ireland et al., the phenomenon is quite general and is characteristic of bases as well as acids. Ireland et al. is hereby incorporated by reference. Values of pK for representative molecules in the ground state (S0) and the first excited singlet state (S1) are given in Table I. Deprotonation results in increased acidity whereas protonation increases the basicity of the solution. […] The change in pK may be quite large.
# [2] = Excited state protonation/deprotonation of 2-naphthol-6-sulfonate by picosecond laser/streak camera fluorescence; type: physicochemical
# Text: A number of runs were made to obtain measurements from which the rates of excited state protonation and deprotonation kf and kb, respectively, could be determined for the reaction: [formula] […] As long as the solution is not so acidic as to make the protonation reaction fast (pH≤3), the rate of excited state proton transfer is simply determined from the risetime of the anion emission.
# Since the fluorescence of 2-naphthol-6-sulfonate (λmax ~360 nm) is considerably shifted from that of its anion (λmax ~430 nm), only the anion emission is recorded when 450±10 nm spectral filter 14 is placed between the sample cell 12 and the slit of streak camera 15. FIG. 4 is a plot of the risetime (10-90%) of the emission from the 2-naphthol-6-sulfonate anion versus the initial pH of the solution. Individual points represent the average of four to six separate streak camera exposures. […] At very high acidities, the protonation rate becomes so rapid that the temporal profile of the excited anion emission follows that of the protonated species.
# By measuring the time history of both anionic and acidic species under a variety of experimental conditions and using a kinetic scheme which includes terms for the fluorescence lifetimes and quenching, the complete kinetics of the excited state protonation deprotonation are readily obtained. For 2-naphthol-6-sulfonate, kf =(1.02±0.3)×10^9 sec^-1 and kb =(9.0±3)×10^10 l-mole^-1 -sec^-. The solid line of FIG. 4 is a fit using a kinetic model with kf and kb having these values.
# [3] = cited from earlier work; for pK(S0): ground state
# [4] = Comparison of proton transfer time and excited state lifetime; type: physicochemical; settings: for proton transfer time: excited state; for ability to produce pH change: on electronic excitation
# Text: Consider the situation wherein the proton transfer time for either protonation or deprotonation is longer than the excited state lifetime of the molecules in question. In this situation, it is not possible to achieve an acid-base equilibrium during the excited state lifetime. As a result, some of the photons that could be used to produce protons under acid-base equilibrium conditions are no longer available for this purpose because the excitation produced by them is lost in various decay processes from the excited state (see FIG. 1). It will be apparent therefore, that to maximize the pH change for a particular concentration and radiation fluence, it is highly desirable that the proton transfer time be substantially shorter than the excited state lifetime.
# It can, however, be readily determined for any compound of interest by means of time resolved spectroscopy of species in the solution. In the case of an acid reaction of the type shown in reaction (1), these would be the acid AH and the anion A^-. Such spectroscopy permits the concentrations of these species to be ascertained.
# The requisite spectroscopic measurements are quite straightforward if (a) the excited states of both AH and A^- fluoresce, (b) the fluorescence from the excited states of AH and A^- is sufficiently spectrally shifted that they can be distinguished from one another, and (c) excited state protonation and deprotonation occur with retention of the electronic excitation. […] In those instances where they are not met it is still possible to obtain the necessary information by means of various techniques well known to those versed in the spectroscopic arts. Thus, for example, lack of fluorescence from the excited states of AH and A^- can be overcome by probing with excited-state absorption spectroscopy rather than emission spectroscopy.
# [5] = pH jump (more acidic) by 266 nm irradiation of 2-naphthol-6-sulfonate solution
# Text: A single 30 psec pulse 4 at 1064 nm is extracted from the pulse train of mode-locked Nd:YAG laser 1 by means of Blumlein electronic switchout unit 3. The flowing dye 2 serves to mode lock laser 1. A second harmonic of pulse 4 is generated at 532 nm in KDP crystal 5.
# Wavelengths other than 532 nm are then removed from pulse 4 by means of spectral filters 6. The 532 nm pulse is reflected from mirror 7 through ADP crystal 8 where it in turn is frequency doubled to produce the fourth harmonic at 266 nm.
# Beam splitter 11 directs a portion of the 266 nm pulse to energy meter 20. […] The beam size on sample 12 is ~0.1 mm. […] Appropriate filters 14 are used to isolate various emission bands.
# The pH of the solutions was adjusted by addition of reagent grade HCl or NaOH and was measured on a pH meter (Fisher Model 230) accurate to about 0.1 pH unit.
# [6] = ground state, cited from earlier work
# [7] = cited from earlier work
# [8] = Excited state protonation of coumarin 102 by time-resolved fluorescence; type: physicochemical
# Text: (§1) A proton attaches at the carbonyl site by the reaction [formula] Here Kp is the protonation rate constant and kdp is the deprotonation rate constant.
# (§2) Experimental runs utilized laser grade coumarin 102 (Eastman) which was maintained at a concentration of 1.0×10^-3 M in a 1:1 H2 O:ethanol solvent. Deionized, distilled water and reagent grade ethanol were used for all of the runs. The solution pH was varied by the addition of reagent grade HCl and measured to an accuracy of 0.05 pH unit with a pH meter (Markson 90). The apparatus of FIG. 3 was modified to the extent that ADP crystal 8 was replaced by a KDP sum frequency generator to produce […] radiation which excited the sample. Filter 9 was either a 435 nm interference filter or a Corning 2-62 filter to isolate fluorescence from coumarin 102 and its cation, respectively.
# The experimental runs were made to obtain measurements of the time history of both species under a variety of experimental conditions.
# [9] = pH jump (more basic) by irradiation of coumarin 102 solution; type: physicochemical
# Text: as §1, §2
# [10] = 1.0×10^-3 M in water, 266 nm, 20 psec pulse
# [11] = reaction as drawn in the line of Table II
smiles,measurement,setting,value
O=S(=O)(O)c1ccc2cc(O)ccc2c1 [2-Naphthol-6-Sulfonate],pK change upon excitation,[1],7
same,results with freshly prepared and day-old solutions,[2]; 1.0×10^-3 M in water,identical
same,"rate of excited state deprotonation/proton transfer, kf",[2]; [10],(1.02±0.3)×10^9 sec^-1
same,"rate of excited state protonation, kb",[2]; [10],(9.0±3)×10^10 l-mole^-1 -sec^-
same,risetime (10-90%) of anion emission versus initial pH,"[2]; 450±10 nm, initial pH varied","As the solution becomes more acidic, the risetime becomes more rapid"
same,pK(S0),[3],9.1
same,excited state lifetime,[4],1e-08 s
same,proton transfer time,[4],less than 1×10^-9 sec
same,ability to produce pH change,[4],can be used to produce large and very rapid pH modulation
same,excited state acid-base equilibrium,[5],excited state acid-base equilibrium is achieved
same,excited state lifetime,[5],about 10 nsec
same,increase in H3O^+,"[5]; 20 psec, 266 nm pulse, typically 30 μJ",more than 10^-4 M
same,proton transfer time,[5]; excited state,less than 1 nsec
Oc1ccc2ccccc2c1 [2-Naphthol],pK(S0),[3],9.5
same,excited state lifetime,[4],~ 6×10^-9 sec
same,proton transfer time,[4],2e-08 s
same,ability to produce pH change,[4],cannot; also recorded: the amount of the change is substantially less than that which can be achieved with 2-naphthol-6-sulfonate
Nc1ccc2ccccc2c1 [2-Naphthylamine],pK(S0),[6]; [11],≥ 14
same,pK(S0),"[6]; second 2-Naphthylamine line, reaction drawing 7",4.1
c1ccc2nc3ccccc3cc2c1 [Acridine],pK(S0),[6]; [11],5.5
c1ccc(N=Nc2ccccc2)cc1 [Azobenzene],pK(S0),[6]; [11],-2.90
"c1ccc2c(c1)Cc1ccccc1-2 [Fluorene, reference compound]",pK change upon excitation,[1],29
c1ccc2ccccc2c1 [Naphthalene],pK(S0),[6]; [11],-4.0
"c1ccc2c(c1)ccc1ccccc12 [Phenanthrene, reference compound]",acidity/basicity in ground and excited state,[3]; ground state versus first excited singlet state,becomes less acidic (more basic) in the excited state
same,pK(S0),[3],-3.5
O=c1c2ccccc2oc2ccccc12 [Xanthone],pK(S0),[6]; [11],-4.1
same,triplet state lifetime,[7],several to tens of milliseconds
O=C(c1ccccc1)c1ccccc1 [benzophenone],triplet state lifetime,[7],several to tens of milliseconds
Cc1cc(=O)oc2c3c4c(cc12)CCCN4CCC3 [coumarin 102],deprotonation during excited state lifetime,[8]; 1:1 H2O:ethanol,very small
same,excited state acid-base equilibrium,[8]; 1:1 H2O:ethanol,excited state acid-base equilibrium is not achieved
same,excited state lifetime,[8]; 1.0×10^-3 M in 1:1 H2O:ethanol,3.3±0.3 nsec
same,excited state protonation rate constant kp,"[8]; 1.0×10^-3 M in 1:1 H2O:ethanol, 355 μm (so in the source) excitation",(1.6 ±0.3)×10^10 l-mole^-1 -sec^-1
same,quenching of excited states,[9]; concentrations near 10^-3 M,no evidence of quenching of excited states
same,pH after pH jump,"[9]; initial pH 4, 355 nm pulses >1 mJ",4.1
